Measurements reported in ChEMBL document CHEMBL1132781, “Structure-based design and synthesis of phosphinate isosteres of phosphotyrosine for incorporation in Grb2-SH2 domain inhibitors. Part 1” (Bioorg Med Chem Lett, 2000).

Target: Growth factor receptor-bound protein 2 (Homo sapiens, UniProt P62993)
Assay: Inhibition of Grb2-SH2 domain binding to phospho-EGF receptor intracellular C-terminal domain
Assay type: cell-based

IC50 [nM]	SMILES
530	CC(=O)N[C@@H](Cc1ccc(CP(=O)(O)C(O)c2ccccc2)cc1)C(=O)NC1(C(=O)N[C@@H]2CCCC[C@@H]2C(N)=O)CCCCC1 (stereo partly specified)
25500	CC(=O)N[C@@H](Cc1ccc(CP(C)(=O)O)cc1)C(=O)NC1(C(=O)N[C@@H]2CCCC[C@@H]2C(N)=O)CCCCC1
1600	CC(=O)N[C@@H](Cc1ccc(CP(=O)(O)CCO)cc1)C(=O)NC1(C(=O)N[C@@H]2CCCC[C@@H]2C(N)=O)CCCCC1
7600	CC(=O)N[C@@H](Cc1ccc(CP(=O)(O)CO)cc1)C(=O)NC1(C(=O)N[C@@H]2CCCC[C@@H]2C(N)=O)CCCCC1
1200	CC(=O)N[C@@H](Cc1ccc(CP(=O)(O)Cc2ccccc2)cc1)C(=O)NC1(C(=O)N[C@@H]2CCCC[C@@H]2C(N)=O)CCCCC1
700	CC(=O)N[C@@H](Cc1ccc(CP(=O)(O)O)cc1)C(=O)NC1(C(=O)N[C@@H]2CCCC[C@@H]2C(N)=O)CCCCC1
